Data as given in PubChem BioAssay (NCI).
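1) Cells in 96-well plates. 2) Compound, 48 h, 5 concentrations. 3) Linear interpolation between surrounding doses. 4) Unreached endpoint = highest concentration. GI50 marks 50% less growth. TGI denotes the concentration required for complete inhibition of growth.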

Experiments:
Test in all cases: inhibition of tumour cell growth, NCI panel, 48 h
HS 578T breast = system: HS 578T breast
SR leukemia = system: SR leukemia
PC-3 prostate = system: PC-3 prostate
CCRF-CEM leukemia = system: CCRF-CEM leukemia
NCI-H460 lung = system: NCI-H460 lung
OVCAR-3 ovarian = system: OVCAR-3 ovarian
HCT-116 colon = system: HCT-116 colon
NCI-H522 lung = system: NCI-H522 lung
DU-145 prostate = system: DU-145 prostate
TK-10 renal = system: TK-10 renal
MDA-MB-435 = system: MDA-MB-435
786-0 renal = system: 786-0 renal
SF-295 CNS = system: SF-295 CNS
HL-60(TB) leukemia = system: HL-60(TB) leukemia
MCF7 breast = system: MCF7 breast
MALME-3M melanoma = system: MALME-3M melanoma
UACC-62 melanoma = system: UACC-62 melanoma
NCI-H23 lung = system: NCI-H23 lung
T-47D breast = system: T-47D breast
KM12 colon = system: KM12 colon
OVCAR-5 ovarian = system: OVCAR-5 ovarian
SF-268 CNS = system: SF-268 CNS
LOX IMVI melanoma = system: LOX IMVI melanoma
RXF 393 renal = system: RXF 393 renal
HOP-92 NSCLC = system: HOP-92 NSCLC
COLO 205 colon = system: COLO 205 colon

OCCCc1n(Cc2ccc3ccccc3c2)c2ccccc2[n+]1Cc1ccc2ccccc2c1
GI50 (HS 578T breast): 2150 nM | TGI (HS 578T breast): 7960 nM | GI50 (SR leukemia): 1160 nM | TGI (SR leukemia): 3780 nM | GI50 (PC-3 prostate): 1740 nM | TGI (PC-3 prostate): 11100 nM | GI50 (CCRF-CEM leukemia): 1990 nM | TGI (CCRF-CEM leukemia): 5650 nM | GI50 (NCI-H460 lung): 2430 nM | TGI (NCI-H460 lung): 9570 nM | GI50 (OVCAR-3 ovarian): 1070 nM | TGI (OVCAR-3 ovarian): 2810 nM | GI50 (HCT-116 colon): 1050 nM | TGI (HCT-116 colon): 2590 nM | GI50 (NCI-H522 lung): 1050 nM | TGI (NCI-H522 lung): 3950 nM | GI50 (DU-145 prostate): 3520 nM | TGI (DU-145 prostate): 14200 nM | GI50 (TK-10 renal): 1950 nM | TGI (TK-10 renal): 4740 nM | GI50 (MDA-MB-435): 1220 nM | TGI (MDA-MB-435): 2710 nM | GI50 (786-0 renal): 2090 nM | TGI (786-0 renal): 4740 nM | GI50 (SF-295 CNS): 2640 nM | TGI (SF-295 CNS): 11300 nM | GI50 (HL-60(TB) leukemia): 507 nM | TGI (HL-60(TB) leukemia): 2360 nM | GI50 (MCF7 breast): 1700 nM | TGI (MCF7 breast): 3670 nM | GI50 (MALME-3M melanoma): 1280 nM | TGI (MALME-3M melanoma): 2820 nM | GI50 (UACC-62 melanoma): 666 nM | TGI (UACC-62 melanoma): 2090 nM | GI50 (NCI-H23 lung): 1650 nM | TGI (NCI-H23 lung): 8170 nM | GI50 (T-47D breast): 615 nM | TGI (T-47D breast): 6820 nM | GI50 (KM12 colon): 1400 nM | TGI (KM12 colon): 3080 nM | GI50 (OVCAR-5 ovarian): 1980 nM | TGI (OVCAR-5 ovarian): 7170 nM | GI50 (SF-268 CNS): 1810 nM | TGI (SF-268 CNS): 4560 nM | GI50 (LOX IMVI melanoma): 1340 nM | TGI (LOX IMVI melanoma): 2680 nM | GI50 (RXF 393 renal): 1500 nM | TGI (RXF 393 renal): 3830 nM | GI50 (HOP-92 NSCLC): 567 nM | TGI (HOP-92 NSCLC): 3100 nM | GI50 (COLO 205 colon): 838 nM | TGI (COLO 205 colon): 2530 nM
